Numbers after ± are expanded uncertainties.
Key:
[1] = 101.33 kPa, Liquid, Vibrating tube method
[2] = refractive index (Na D-line) (dimensionless); details: 293.15 K; 101.33 kPa; Liquid; Standard Abbe refractometry

mass density ([1]; 298.15 K) [kg/m3]	mass density ([1]; 308.15 K) [kg/m3]	mass density ([1]; 318.15 K) [kg/m3]	mass density ([1]; 328.15 K) [kg/m3]	mass density ([1]; 338.15 K) [kg/m3]	mass density ([1]; 348.15 K) [kg/m3]	refractive index [2]	Structure (SMILES)
1006.71 ± 0.85	1000.55 ± 0.84	994.44 ± 0.83	988.41 ± 0.82	982.44 ± 0.82	976.52 ± 0.81		CCCC[N+]1(C)CCCC1.N#CC(=C=[N-])C#N [1-butyl-1-methylpyrrolidinium tricyanomethanide]
						1.38432 ± 0.0007	CCCO [propan-1-ol]
